Measurements reported in US20130150243A1, “METHOD OF CONTROLLING PEST” (SUMITOMO CHEMICAL COMPANY, LIMITED, priority 2011, published 2013).

Experiments:
Format in all cases: in vivo
cotton = assay: Phytotoxicity on crop; parameters: key: when phytotoxicity is hardly perceived, it is represented by “no damage”; when slight phytotoxicity is perceived, it is represented by “slight”; when moderate phytotoxicity is perceived, it is represented by “moderate”; when severe phytotoxicity is perceived, it is represented by “severe”; conditions: soil treated with flumioxazin 50 or 75 g/ha 15 days before seeding
Description: For evaluation of phytotoxicity on a crop, when phytotoxicity is hardly perceived, it is represented by “no damage”, when slight phytotoxicity is perceived, it is represented by “slight”, when moderate phytotoxicity is perceived, it is represented by “moderate”, and when severe phytotoxicity is perceived, it is represented by “severe”. The “phytotoxicity” evaluated herein is a damage characteristic determined to be caused by the treated compound, and is clearly discriminated from a damage characteristic caused by a pest.
(§1) Into a plastic cup having an internal diameter of 96 millimeters and a height of 44 millimeters are placed 25 microliters of a clothianidin suspension (suspension containing 600 g/L clothianidin, trade name: NipsIt INSIDE, manufactured by Valent USA) and 50 grains of cotton seeds. By shaking this plastic cup with a hand, the clothianidin suspension is attached to the cotton seeds.
Into a pot made of a plastic having an internal diameter of 177 millimeters and a height of 140 millimeters is packed a soil in which each of about 500 milligrams of seeds of Conyza canadensis, Amaranthus palmeri and Chenopodium album are mixed. A liquid of a flumioxazin water dispersible granule (water dispersible granule containing 51% of flumioxazin, trade name: Valor SX, manufactured by Valent USA) diluted with water is uniformly sprayed on the soil surface of this pot with a sprayer, so that flumioxazin is applied in an amount of 50 or 75 g/ha. Fifteen days after spraying, the cotton seeds are seeded at 5 grains per pot.
Six days after release of Aphis gossypii, the insecticidal activity, herbicidal activity and phytotoxicity are determined, and high weed controlling activity (>80) and high Aphis gossypii control value (>70) are obtained, and the phytotoxicity on the cotton is “no damage”.
Into a plastic cup having an internal diameter of 96 millimeters and a height of 44 millimeters are placed 25 microliters of a thiamethoxam preparation (preparation containing 600 g/L thiamethoxam, trade name: Cruiser 5FS, manufactured by Syngenta) and 50 grains of cotton seeds. By shaking this plastic cup with a hand, the thiamethoxam preparation is attached to the cotton seeds.

Aphis gossypii = assay: Insecticidal activity (controlling value) on cotton grown from treated seeds; conditions: soil treated with flumioxazin 50 or 75 g/ha, six days after release of Aphis gossypii
Experimental: For evaluating the insecticidal activity, life or death of an insect at investigation is determined, and a controlling value is obtained by the following equation:
Controlling value(%)=100×(1−T/C)
C: Number of insects at observation of non-treated section T: Number of insects at observation of treated-section
as §1
Fifteen days after seeding with the cotton seeds, a cotton leaf piece on which 20 larvae and 20 adults of Aphis gossypii inhabited is placed in the pot, and the whole plant is covered with a nylon cloth.
(§2) Six days after release of Aphis gossypii, the insecticidal activity, herbicidal activity and phytotoxicity are determined, and high weed controlling activity (>80) and high Aphis gossypii control value (>70) are obtained, and the phytotoxicity on the cotton is “no damage”. […]

[1] = tested on: Conyza canadensis, Amaranthus palmeri and Chenopodium album; assay: Herbicidal activity in pot test, soil surface treated before seeding with treated cotton seeds; conditions: assessed 21 days after seeding
Description: Evaluation of herbicidal activity is classified into 0 to 100, letting no or little difference when the state of germination or growth of a test weed at investigation is compared with that of non-treatment to be “0”, and letting complete withering of a test weed or complete inhibition of germination or growth to be “100”.
as §1
Into a pot made of a plastic having an internal diameter of 177 millimeters and a height of 140 millimeters is packed a soil in which each of about 500 milligrams of seeds of Conyza canadensis, Amaranthus palmeri and Chenopodium album are mixed. […]
as §2

[2] = Example 1: clothianidin-treated cotton seeds
[3] = Example 2: thiamethoxam-treated cotton seeds

Row | SMILES | phytotoxicity on the cotton (cotton; [2]) | Aphis gossypii control value (Aphis gossypii; Example 1: clothianidin suspension (NipsIt INSIDE, 600 g/L) 25 microliters per 50 cotton seeds) [%] | phytotoxicity on the cotton (cotton; [3]) | weed controlling activity (herbicidal activity, scale 0 to 100) ([1]; Example 1: flumioxazin (Valor SX) 50 or 75 g/ha on soil surface 15 days before seeding, cotton seeds treated with clothianidin) | weed controlling activity (herbicidal activity, scale 0 to 100) ([1]; Example 2: flumioxazin (Valor SX) 50 or 75 g/ha on soil surface 15 days before seeding, cotton seeds treated with thiamethoxam) | Aphis gossypii control value (Aphis gossypii; Example 2: thiamethoxam preparation (Cruiser 5FS, 600 g/L) 25 microliters per 50 cotton seeds) [%]
1 | CN/C(=N\[N+](=O)[O-])NCc1cnc(Cl)s1 [clothianidin] | no damage | > 70 |  |  |  | 
2 | C#CCN1C(=O)COc2cc(F)c(N3C(=O)C4=C(CCCC4)C3=O)cc21 [flumioxazin] | no damage |  | no damage | > 80 | > 80 | 
3 | CN1COCN(Cc2cnc(Cl)s2)/C1=N\[N+](=O)[O-] [thiamethoxam] |  |  | no damage |  |  | > 70
